This note sets out measurements from patent US8455444B2, “CDH3 peptide and medicinal agent comprising the same” (Oncotherapy Science, Inc., priority 2007, dated 2013).

Holding throughout (format): cell-based
The subject of one series is T2 cells. Briefly: 51Cr release assay of peptide-induced human CTLs against peptide-pulsed T2 cells. The conditions noted are these: CTLs induced from PBMCs of HLA-A2 positive healthy donors, three stimulations. The text has this:
(§1) Human pancreatic cancer cell line PK8 was kindly provided by the Cell Resource Center for Biomedical Research, Institute of Development, Aging and Cancer, Tohoku University. Human colon cancer cell line HCT116 was kindly provided by Dr. B. Vogelstein, Johns Hopkins University (Baltimore, Md.). Human liver cancer cell line SKHep1 was kindly provided by Professor Kyogo Ito, Kurume University (Kurume, Japan).
PBMCs derived from heparinized blood of HLA-A2 positive pancreatic cancer patients, gastric cancer patients, colorectal cancer patients, or healthy donors were isolated by Ficoll-Conray density gradient centrifugation. […] DCs were pulsed with 20 μg/mL of a candidate peptide in the presence of 4 μg/mL β2-microglobulin (Sigma-Aldrich, St. Louis, Mo., USA) for two hours at 37° C. in AIM-V (Invitrogen) containing 2% heat-inactivated autologous plasma. These DCs were then irradiated (40 Gy) and incubated with CD8 positive cells. […] Six days after the last stimulation, the antigen-specific responses of induced CTLs were evaluated by ^51Cr release assay and IFN-γ ELISPOT assay.
CD8 T cells sorted from PBMCs were incubated with autologous mononuclear cell (monocyte)-derived DCs pulsed with each peptide. After three stimulations, cytocidal effect against peptide-pulsed T2 cells was evaluated by ^51Cr release assay (FIG. 4A) and IFN-γ ELISPOT assay.

The test system of another series is HCT116. The experiment in a line: 51Cr release assay of peptide-induced human CTLs against cancer cell line. The following applies: for cytotoxicity to HCT116: FIG. 4C: CTLs from PBMCs of HLA-A2 positive cancer patients; for cytotoxicity to HCT116 (CDH3+, HLA-A2+): CTLs from healthy donors.
Excerpt: as §1
(§2) PBMCs derived from heparinized blood of HLA-A2 positive pancreatic cancer patients, gastric cancer patients, colorectal cancer patients, or healthy donors were isolated by Ficoll-Conray density gradient centrifugation. […] DCs were pulsed with 20 μg/mL of a candidate peptide in the presence of 4 μg/mL β2-microglobulin (Sigma-Aldrich, St. Louis, Mo., USA) for two hours at 37° C. in AIM-V (Invitrogen) containing 2% heat-inactivated autologous plasma. These DCs were then irradiated (40 Gy) and incubated with CD8 positive cells. The incubation was carried out in 24-well plates, which were prepared to contain in each well 2 mL of AIM-V supplemented with 2% autologous plasma, 1×10^5 peptide-pulsed DCs, 2×10^6 CD8^+ T cells, and 5 ng/mL of human recombinant IL-7 (Wako, Osaka, Japan). After two days, these cultures were supplemented with human recombinant IL-2 (PeproTec Inc.) to a final concentration of 20 IU/mL. Two additional weekly stimulations with the same peptide-pulsed autologous DCs using the same procedure were carried out on day 7 and day 14. Six days after the last stimulation, the antigen-specific responses of induced CTLs were evaluated by ^51Cr release assay and IFN-γ ELISPOT assay.

A further series has as its system HSC3. Described as above. The following applies: CTLs from healthy donors.
Excerpt: as §1, §2

The next series has as its system PANC1/CDH3. Described as above. The following applies: for cytotoxicity to PANC1/CDH3: FIG. 4C: CTLs from PBMCs of HLA-A2 positive cancer patients. Here is the method: as §1
(§3) After 60 hours, the culture medium was recovered and the viral particles were pelleted by ultracentrifugation (50,000×g, two hours).
as §2

In the next series the test system is SKHep1/CDH3. Described as above. The following applies: FIG. 4C: CTLs from PBMCs of HLA-A2 positive cancer patients. The procedure:
as §1, §3, §2

For a further series, the system named is PANC1. Described as above. The following applies: CTLs from healthy donors.
Excerpt: as §1, §2

The next series concerns PK8. Described as above. The following applies: CTLs from healthy donors.
Excerpt: as §1, §2

The next series relates to SKHep1. Described as above. The following applies: CTLs from healthy donors.
Excerpt: as §1, §2

Each structure is given as a SMILES string. Entries after “also recorded” stand apart in the source; their conditions may differ. Where a SMILES comes first, the peptide text is derived from it.

On to `CC[C@H](C)[C@H](NC(=O)[C@@H](NC(=O)[C@@H](N)Cc1ccccc1)[C@@H](C)CC)C(=O)N[C@@H](CCC(=O)O)C(=O)N[C@@H](CC(N)=O)C(=O)N[C@@H](CC(C)C)C(=O)N[C@@H](CCCCN)C(=O)N[C@@H](C)C(=O)N[C@@H](C)C(=O)O` [CDH3-7, FIIENLKAA] (H-FIIENLKAA-OH), for which the “cytotoxicity (cytocidal effect) against peptide-pulsed T2 cells” value in the series on T2 cells (listed as CDH3-7757-765) is on record as “exhibited cytocidal effect; also recorded: exhibited cytotoxicity”. Besides, the “cytotoxicity to HCT116” value with HCT116 was “exhibited cytotoxicity”. The “cytotoxicity to HSC3 (CDH3+, HLA-A2+)” value in the series on HSC3 is recorded as “exhibited cytotoxicity”. The “cytotoxicity to PANC1/CDH3” value in the series on PANC1/CDH3 is listed as “exhibited cytotoxicity”. Also, the “cytotoxicity to SKHep1/CDH3 (CDH3+, HLA-A2+)” value with SKHep1/CDH3 is given as “exhibited cytotoxicity”.
As to `CC(C)C[C@H](NC(=O)[C@@H](NC(=O)[C@H](C)NC(=O)[C@H](Cc1ccc(O)cc1)NC(=O)[C@@H](NC(=O)[C@H](CC(N)=O)NC(=O)[C@H](Cc1ccc(O)cc1)NC(=O)[C@H](CC(C)C)NC(=O)[C@@H](N)CO)[C@@H](C)O)[C@@H](C)O)C(=O)O` [HIV peptide, SLYNTYATL, reference compound] (H-SLYNTYATL-OH), in the series with HCT116, the “cytotoxicity to HCT116 (CDH3+, HLA-A2+)” value is “did not exhibit cytotoxicity; also recorded: did not show cytotoxicity”.
As for `CC[C@H](C)[C@H](NC(=O)[C@@H](N)Cc1ccccc1)C(=O)N[C@@H](CC(C)C)C(=O)N1CCC[C@H]1C(=O)N[C@H](C(=O)N[C@@H](CC(C)C)C(=O)NCC(=O)N[C@@H](C)C(=O)N[C@H](C(=O)O)C(C)C)C(C)C` [CDH3-4, FILPVLGAV] (H-FILPVLGAV-OH), the “cytotoxicity (cytocidal effect) against peptide-pulsed T2 cells” value with T2 cells (listed as CDH3-4655-663) is reported as “exhibited cytocidal effect; also recorded: exhibited cytotoxicity”. Also, in the series with HCT116, the “cytotoxicity to HCT116 (CDH3+, HLA-A2+)” value is “exhibited in healthy donors cytotoxicity” and the “cytotoxicity to HCT116” value was “exhibited cytotoxicity”. In addition, the “cytotoxicity to HSC3 (CDH3+, HLA-A2+)” value with HSC3 is “exhibited in healthy donors cytotoxicity”. Besides, in the series on PANC1, the “cytotoxicity to PANC1 (CDH3−, HLA-A2+)” value is “did not exhibit the same effect”. Besides, the “cytotoxicity to PK8 (CDH3+, HLA-A2−)” value in the series on PK8 is “did not exhibit the same effect”. Further, the “cytotoxicity to SKHep1 (CDH3−, HLA-A2+)” value in the series with SKHep1 is “did not exhibit the same effect”. Further, the “cytotoxicity to PANC1/CDH3 (CDH3+, HLA-A2+)” value in the series on PANC1/CDH3 (CTLs from healthy donors) was “exhibited in healthy donors cytotoxicity”. In addition, the “cytotoxicity to PANC1/CDH3” value in the series with PANC1/CDH3 was “exhibited cytotoxicity”. In addition, the “cytotoxicity to SKHep1/CDH3 (CDH3+, HLA-A2+)” value in the series with SKHep1/CDH3 is “exhibited cytotoxicity”.
